Series [1] concerns thermal hyperalgesia. Put plainly: CCI/Thermal Hyperalgesia (paw withdrawal latency to radiant heat). It counts as in vivo. To be noted: CCI rats; for dose that significantly reversed thermal hyperalgesia: post-hoc comparison relative to vehicle. How it is done: (§1) Rats were anesthetized under aseptic and heated conditions using a combination of 1.6 ml ketamine (100 mg/ml) and 1.6 ml xylazine (100 mg/ml) in 6.8 ml 0.9% saline at a volume of 0.1 ml/100 g. The left quadriceps was shaved and scrubbed thoroughly with an iodine solution. The sciatic nerve was exposed at the level of the sciatic notch distally to the sciatic trifurcation. The nerve was very carefully freed from the underlying muscle and connective tissue without causing trauma to the nerve itself. Using 4-0 chromic catgut suture material, four semi-loose ligatures were tied around the sciatic nerve starting at the most proximal level, next to the sciatic notch, spaced roughly 1 mm apart and ending proximal to the sciatic trifurcation. […] The muscular incision was closed with 4-0 silk suture material and the skin was stapled with wound clips. The animals were closely observed until they recovered completely from the anesthetic. The surgery was the same for the hyperalgesia and allodynia experiments.
For hyperalgesia testing, rats were placed in a tinted plastic box on top of a clear glass, temperature-regulated floor maintained at 31±1° C. The floor contained a focal radiant heat source (halogen projection lamp CXL/CXP, 50 W, 8 v, USHIO, Tokyo).
To initiate the test, rats were placed in the tinted boxes and allowed 10-20 minutes to acclimate to the new environment. The radiant heat source was then positioned under the plantar surface of the hind paw. Upon activation of the heat source, a timer was simultaneously triggered. Upon reflex movement of the hind paw, a motion sensor was activated stopping the timer and inactivating the heat source. The thermal source was adjusted so that the average response latency for an uninjured animal was no greater than 20 seconds. Each rat had two days of pre-operative baseline latency measurements in which the left rear hind paw plantar surface was measured three to four times. Two to three left postoperative baseline latency measurements were taken before and after the treatment was given. Postoperative day 2 and 4 measurements yielded the greatest degree of hyperalgesia and thus were utilized in this assay. Each animal was tested twice with at least 48 hours separating each test.
Thermal hyperalgesia developed in the surgical-treated left paw as evidenced by a decrease in paw withdrawal latencies to a thermal stimulus. The maximal hyperalgesia occurred on post-operative days 2 through 4. Paw withdrawal latencies on the surgically-treated left side gradually returned to baseline levels over the course of 5 to 12 days post-surgery.

The target in series [2] is T1, M(1) muscarinic receptor (Homo sapiens, UniProt P11229).
T1 construct: expressed in transfected cells
T1 sequence (P11229 1-460): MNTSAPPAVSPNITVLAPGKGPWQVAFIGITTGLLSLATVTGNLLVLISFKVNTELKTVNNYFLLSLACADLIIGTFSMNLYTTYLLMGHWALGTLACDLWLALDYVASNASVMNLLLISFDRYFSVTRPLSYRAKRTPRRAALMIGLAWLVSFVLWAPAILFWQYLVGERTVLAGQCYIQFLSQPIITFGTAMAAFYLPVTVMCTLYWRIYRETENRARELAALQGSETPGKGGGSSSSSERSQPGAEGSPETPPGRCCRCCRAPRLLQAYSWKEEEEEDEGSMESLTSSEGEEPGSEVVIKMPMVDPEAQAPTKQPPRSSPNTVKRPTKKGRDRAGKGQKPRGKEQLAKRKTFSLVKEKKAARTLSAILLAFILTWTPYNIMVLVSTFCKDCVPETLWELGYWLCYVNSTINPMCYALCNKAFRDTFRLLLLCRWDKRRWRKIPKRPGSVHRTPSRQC
The experiment in a line: R-SAT functional receptor assay, M(1). It counts as cell-based. To be noted: for Emax: read-out: M1 % efficacy. From the text: (§2) The functional receptor assay, Receptor Selection and Amplification Technology (R-SAT), essentially as disclosed in U.S. Pat. Nos. 5,707,798, 5,912,132, and 5,955,281, which are all hereby incorporated by reference in their entirety, was used to investigate the pharmacological properties of known and novel muscarinic agonists.

In series [3] the test system is tactile allodynia. The experiment in a line: CCI/Tactile Allodynia (von Frey hairs). It counts as in vivo. Conditions: CCI rats; for dose that reversed tactile allodynia: i.p., post-hoc comparison. As to the method: as §1
The onset and duration of significant mechanical allodynia post CCI surgery is approximately 10-14 days and lasts for roughly two months. Within this allodynic time frame, and for each specific allodynia experiment, pre and post drug administration measurements were taken with seven von Frey hairs which are designated by log (10* force required to bend hair, mg) and ranged from 2-26 grams (#'s 4.31-5.46). Each hair was pressed perpendicularly against the left injured plantar mid-hind paw surface with sufficient force to cause a slight bending, and was held for 6-8 seconds starting with the thinnest gauged hair and working up to the thickest. A positive response was recorded when the injured paw was sharply withdrawn, and this response was confirmed as positive by testing the next thickest gauged hair for the same response. Only when a response was seen twice was the score accepted. If the maximum gram force of 26 was reached without a response, this was considered the peak threshold cutoff for allodynic behavior and the score was recorded. Animals were considered allodynic when the post surgery baseline measurements were 6 grams and below. Two baseline days of measurements were taken with one round of testing occurring per day. On the day of drug testing, one round of baseline measurements were taken, the appropriate pretreatment was administered i.p. and a second round of measurements were recorded. Each animal was utilized in multiple experiments, with one treatment per experiment, and an appropriate washout period in between experiments.

For series [4], the target named is T2, M(2) muscarinic receptor (Homo sapiens, UniProt P08172).
T2 construct: expressed in transfected cells
T2 sequence (P08172 1-466): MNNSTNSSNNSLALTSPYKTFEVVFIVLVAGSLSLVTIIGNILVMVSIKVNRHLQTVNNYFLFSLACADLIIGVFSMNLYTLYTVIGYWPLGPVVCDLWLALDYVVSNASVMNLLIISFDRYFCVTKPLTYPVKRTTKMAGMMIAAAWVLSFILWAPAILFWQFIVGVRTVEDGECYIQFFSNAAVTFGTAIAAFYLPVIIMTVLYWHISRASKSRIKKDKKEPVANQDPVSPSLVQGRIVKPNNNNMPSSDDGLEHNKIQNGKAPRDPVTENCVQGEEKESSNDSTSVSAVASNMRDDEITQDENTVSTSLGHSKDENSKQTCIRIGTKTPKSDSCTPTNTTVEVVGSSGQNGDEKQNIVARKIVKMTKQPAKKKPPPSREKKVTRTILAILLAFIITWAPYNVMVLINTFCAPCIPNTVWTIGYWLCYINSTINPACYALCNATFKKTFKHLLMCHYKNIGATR
The experiment in a line: R-SAT functional receptor assay, M(2). It counts as cell-based. Conditions: for Emax: read-out: M2 % efficacy.
From the text: as §2

Series [5] relates to acute thermal pain. Put plainly: Acute Thermal Analgesia (tail withdrawal from 55° C. water). Conditions: rats; for alleviating acute thermal pain, in words / dose active in acute antinociception (tail withdrawal): 55° C. water; for Acute pain, minimal effective dose: NA = not active at the highest tested dose of 30 mg/kg. It counts as in vivo. As to the method:
Water was heated and maintained at 55° C.±1° C. with a probe regulated hot plate. Female rats weighing approximately 200 g -250 g were acclimated days in advance by placing them into and removing them from a plastic rat restrainer. On the day of the experiment each rat was placed in the restrainer 1 minute before the test was performed. Roughly one inch of the tail was submerged into the water as a timer was initiated. Once the tail was completely removed from the water, the timer was stopped and the time was recorded. […] One round of baseline measurements were collected. The test compound was administered and after the appropriate pretreatment interval, the procedure was repeated. Each animal was utilized in multiple experiments, with one treatment per experiment, and an appropriate washout period of at least 48 hours between experiments. The pre-treatment baseline tail withdrawal latency average was 2.281 s±0.25. […] At a dose of 10 mg/kg, morphine [F(3,23)=5.903, p<0.01] was antinociceptive.

Series [6] concerns rats. Put plainly: Muscarinic Side Effects. To be noted: of N tested.
The mark [7] stands for this setting: R-SAT, read-out: M1 pEC50 (converted).
Setting [8] is: R-SAT, read-out: M2 pEC50 (converted).

Like-named read-outs stand apart in the source and are kept apart here.

Take `CCCCC1CCN(CCCc2nsc3ccccc23)CC1` [Formula (VII)]: in series [1], the “Antihyperalgesic, minimal effective dose” value came to 10.0 mg/kg and the “dose that significantly reversed thermal hyperalgesia” value worked out at 10 mg/kg. Moreover, in series [2] (R-SAT), the “agonist character at M(1) receptor, in words” value was “potent and efficacious M(1) agonist”. The EC50 in series [2] (setting [7]) was 79.4 nM. Further, in series [2] (R-SAT, relative to carbachol), the Emax is 85%. In series [3], the “Antiallodynic, minimal effective dose” value came out at 10.0 mg/kg and the “dose that reversed tactile allodynia” value is 10 mg/kg. For the same compound, the “agonist character at M(2) receptor, in words” value in series [4] (R-SAT) was “weak partial agonists”. For the same compound, the EC50 in series [4] (setting [8]) is 1260 nM. In series [4] (R-SAT, relative to carbachol), the Emax is 36%. For the same compound, the “alleviating acute thermal pain, in words” value in series [5] was “not active”.
Regarding `CCCCC1CCN(CCCN2CCOc3ccc(C)cc32)CC1` [Formula (VIII)], in series [1], the “Antihyperalgesic, minimal effective dose” value was found to be 10.0 mg/kg and the “dose that significantly reversed thermal hyperalgesia” value is recorded as 10 mg/kg. The “agonist character at M(1) receptor, in words” value in series [2] (R-SAT) is “potent and efficacious M(1) agonist”. For the same compound, in series [2] (setting [7]), the EC50 is 20 nM. The Emax in series [2] amounted to 81%. Also, in series [3], the “Antiallodynic, minimal effective dose” value came to 30.0 mg/kg and the “dose that reversed tactile allodynia” value was 30 mg/kg. The “agonist character at M(2) receptor, in words” value in series [4] (R-SAT) is reported as “weak partial agonists”. For the same compound, the EC50 in series [4] (setting [8]) is 501 nM. In addition, in series [4], the Emax was found to be 39%. Moreover, the “alleviating acute thermal pain, in words” value in series [5] is “not active”.
Turning to `CO/N=C/C1=CCCN(C)C1` [Milameline], the “Antihyperalgesic, minimal effective dose” value in series [1] stood at 0.3 mg/kg. The “agonist character at M(1) receptor, in words” value in series [2] (R-SAT) was “potent and efficacious full agonists”. For the same compound, the EC50 in series [2] (setting [7]) was 398 nM; in series [4] (setting [8]) it was 631 nM. The Emax amounted to 90% in series [2] (R-SAT, relative to carbachol) and 110% in series [4] (R-SAT, relative to carbachol). Also, the “Antiallodynic, minimal effective dose” value in series [3] amounted to 0.3 mg/kg. The “agonist character at M(2) receptor, in words” value in series [4] (R-SAT) was “potent and efficacious full agonists”. Also, the “dose active in acute antinociception (tail withdrawal)” value (from here on “dose active in acute antinociception”) in series [5] came to 1.0 mg/kg. For the same compound, in series [5], the “Acute pain, minimal effective dose” value came out at 1.0 mg/kg.
Regarding `CN1CC[C@]23c4c5ccc(O)c4O[C@H]2[C@@H](O)C=C[C@H]3[C@H]1C5` [Morphine, morphine], the “anti-allodynia, in words” value in series [3] was “elicited anti-allodynia”. Besides, the “dose active in acute antinociception” value in series [5] was 10 mg/kg.
For `O=C1CCCN1CC#CCN1CCCC1` [Oxotremorine], the “Antihyperalgesic, minimal effective dose” value in series [1] was found to be 0.3 mg/kg. Also, in series [1] (dose 1 mg/kg), the paw withdrawal latency came out at 18.468 ± 1.532 s. Besides, in series [2], the EC50 is 63.1 nM and the Emax was 91%. For the same compound, the “agonist character at M(1) receptor, in words” value in series [2] (R-SAT) is “potent and efficacious full agonists”. Moreover, the “Antiallodynic, minimal effective dose” value in series [3] amounted to 0.3 mg/kg. Also, in series [4], the EC50 was 15.8 nM and the Emax is 104%. Moreover, the “agonist character at M(2) receptor, in words” value in series [4] (R-SAT) was “potent and efficacious full agonists”. For the same compound, the “Acute pain, minimal effective dose” value in series [5] came to 0.3 mg/kg. Moreover, in series [6] (0.1 mg/kg), the “Chromodaccyhrea, number of animals exhibiting” value (“Chromodaccyhrea, number” for short) is 0; the “Diarrhea, number of animals exhibiting” value is listed as 1; the “Lethargy, number of animals exhibiting” value worked out at 0; the “Salivation, number of animals exhibiting” value was 0. Moreover, in series [6] (0.1 mg/kg), the “Tremor, number of animals exhibiting” value came out at 0. Moreover, in series [6] (0.3 mg/kg), the “Chromodaccyhrea, number” value is reported as 2; the “Diarrhea, number of animals exhibiting” value is recorded as 7; the “Lethargy, number of animals exhibiting” value is on record as 0; the “Salivation, number of animals exhibiting” value turned out to be 9. Also, the “Tremor, number of animals exhibiting” value in series [6] (0.3 mg/kg) turned out to be 0. For the same compound, in series [6] (1 mg/kg), the “Chromodaccyhrea, number” value worked out at 8; the “Diarrhea, number of animals exhibiting” value amounted to 18; the “Lethargy, number of animals exhibiting” value was 18; the “Salivation, number of animals exhibiting” value came out at 16. Moreover, the “Tremor, number of animals exhibiting” value in series [6] (1 mg/kg) is listed as 6.
Take `CCCCCCOc1nsnc1C1=CCCN(C)C1` [Xanomeline]: in series [1], the “Antihyperalgesic, minimal effective dose” value was 10.0 mg/kg and the “dose that significantly reversed thermal hyperalgesia” value is listed as 10 mg/kg. Also, the “dose that did not reverse thermal hyperalgesia” value in series [1] (p>0.05 relative to vehicle) is recorded as 3 mg/kg. Moreover, in series [3], the “Antiallodynic, minimal effective dose” value is on record as 10.0 mg/kg. In addition, in series [4] (R-SAT), the “agonist character at M(2) receptor, in words” value is “potent and efficacious full agonists”. In addition, the Emax in series [4] (R-SAT, relative to carbachol) stood at 109%. Also, in series [5], the “dose active in acute antinociception” value was 10.0 mg/kg and the “Acute pain, minimal effective dose” value came out at 10.0 mg/kg.
